Source: patent EP0726261A1, “Herbidical 1,2,4 thiadiazoles” (American Cyanamid Company, priority 1995, dated 1996)

Tests used:
Format in all cases: in vivo
[1] = test system: Triticum aestivum; experiment: Preemergence herbicidal activity (Example 67); set-up: herbicide rating, TRZAW: scale not given here; settings: pre; 800 g/ha; rated about 1-3 weeks after treatment
Procedure: (§1) Herbicidal evaluation of compounds of the invention is conducted on the following plant species:
(§2) The soil is a prepared horticultural substrate containing 30% peat, 20% volcanic clay, 30% bark residues and 20% polyamide/styromull in a 1:3 mixture with loamy sand. Test solutions are prepared by dissolving the test compound in acetone containing 0.5% of an alkylphenol/ethylene oxide condensate under the trademark, TRITON® X-155, and diluting with water as needed. The test solutions are applied as a spray to the 3-6 week old seedling plants at dose rates corresponding to 800g/ha in a volume equivalent to 400 L/ha. A pneumatic spraying device employing a Teejet nozzle SS 8002E operating at 3 bar is used for a predetermined time. After spraying, the treated plants are placed on greenhouse benches and cared for in a manner commensurate with conventional greenhouse practice. After 10-21 days, the treated plants are evaluated and rated according to the rating system provided below.
(§3) The soil surface is then sprayed with test solutions as described in the postemergence evaluation hereinabove. After spraying, the treated cups are placed on greenhouse benches and cared for in the manner commensurate with conventional greenhouse practice. About 1-3 weeks after treatment the cups are evaluated and rated according to the rating system provided hereinabove.

[2] = test system: Hordeum vulgare; experiment: Preemergence herbicidal activity (Example 67); set-up: herbicide rating, HORVW: scale not given here; settings: pre; 800 g/ha; rated about 1-3 weeks after treatment
Procedure: as §1, §2, §3

[3] = test system: Alopecurus myosuroides; experiment: Preemergence herbicidal activity (Example 67); set-up: herbicide rating, ALOMY: scale not given here; settings: pre; 800 g/ha; rated about 1-3 weeks after treatment
Procedure: as §1, §2, §3

[4] = test system: Setaria viridis; experiment: Preemergence herbicidal activity (Example 67); set-up: herbicide rating, SETVI: scale not given here; settings: pre; 800 g/ha; rated about 1-3 weeks after treatment
Procedure: as §1, §2, §3

[5] = test system: Abutilon theophrasti; experiment: Preemergence herbicidal activity (Example 67); settings: pre; 800 g/ha; rated about 1-3 weeks after treatment
Procedure: as §1, §2, §3

[6] = test system: Amaranthus retroflexus; experiment: Preemergence herbicidal activity (Example 67); settings: pre; 800 g/ha; rated about 1-3 weeks after treatment
Procedure: as §1, §2, §3

[7] = test system: Chenopodium album; experiment: Preemergence herbicidal activity (Example 67); settings: pre; 800 g/ha; rated about 1-3 weeks after treatment
Procedure: as §1, §2, §3

[8] = test system: Galium aparine; experiment: Preemergence herbicidal activity (Example 67); settings: pre; 800 g/ha; rated about 1-3 weeks after treatment
Procedure: as §1, §2, §3

[9] = test system: Helianthus annuus; experiment: Preemergence herbicidal activity (Example 67); settings: pre; 800 g/ha; rated about 1-3 weeks after treatment
Procedure: as §1, §2, §3

[10] = test system: Ipomoea hederacea; experiment: Preemergence herbicidal activity (Example 67); settings: pre; 800 g/ha; rated about 1-3 weeks after treatment
Procedure: as §1, §2, §3

[11] = test system: Veronica persica; experiment: Preemergence herbicidal activity (Example 67); settings: pre; 800 g/ha; rated about 1-3 weeks after treatment
Procedure: as §1, §2, §3

[12] = test system: Zea mays; experiment: Preemergence herbicidal activity (Example 67); settings: pre; 800 g/ha; rated about 1-3 weeks after treatment
Procedure: as §1, §2, §3

[13] = test system: Abutilon theophrasti; experiment: Postemergence herbicidal activity (Example 67); settings: pos; 800 g/ha; rated after 10-21 days
Procedure: as §1, §2

[14] = test system: Alopecurus myosuroides; experiment: Postemergence herbicidal activity (Example 67); settings: pos; 800 g/ha; rated after 10-21 days
Procedure: as §1, §2

[15] = test system: Amaranthus retroflexus; experiment: Postemergence herbicidal activity (Example 67); settings: pos; 800 g/ha; rated after 10-21 days
Procedure: as §1, §2

[16] = test system: Chenopodium album; experiment: Postemergence herbicidal activity (Example 67); settings: pos; 800 g/ha; rated after 10-21 days
Procedure: as §1, §2

[17] = test system: Galium aparine; experiment: Postemergence herbicidal activity (Example 67); settings: pos; 800 g/ha; rated after 10-21 days
Procedure: as §1, §2

[18] = test system: Helianthus annuus; experiment: Postemergence herbicidal activity (Example 67); settings: pos; 800 g/ha; rated after 10-21 days
Procedure: as §1, §2

[19] = test system: Hordeum vulgare; experiment: Postemergence herbicidal activity (Example 67); settings: pos; 800 g/ha; rated after 10-21 days
Procedure: as §1, §2

[20] = test system: Ipomoea hederacea; experiment: Postemergence herbicidal activity (Example 67); settings: pos; 800 g/ha; rated after 10-21 days
Procedure: as §1, §2

[21] = test system: Setaria viridis; experiment: Postemergence herbicidal activity (Example 67); settings: pos; 800 g/ha; rated after 10-21 days
Procedure: as §1, §2

[22] = test system: Triticum aestivum; experiment: Postemergence herbicidal activity (Example 67); settings: pos; 800 g/ha; rated after 10-21 days
Procedure: as §1, §2

[23] = test system: Veronica persica; experiment: Postemergence herbicidal activity (Example 67); settings: pos; 800 g/ha; rated after 10-21 days
Procedure: as §1, §2

[24] = test system: Zea mays; experiment: Postemergence herbicidal activity (Example 67); settings: pos; 800 g/ha; rated after 10-21 days
Procedure: as §1, §2

Structure (SMILES)	herbicide rating, TRZAW [1]	herbicide rating, HORVW [2]	herbicide rating, ALOMY [3]	herbicide rating, SETVI [4]	herbicide rating, ABUTH [5]	herbicide rating, AMARE [6]	herbicide rating, CHEAL [7]	herbicide rating, GALAP [8]	herbicide rating, HELAN [9]	herbicide rating, IPOHE [10]	herbicide rating, VERPE [11]	herbicide rating, ZEAMX [12]	herbicide rating, ABUTH [13]	herbicide rating, ALOMY [14]	herbicide rating, AMARE [15]	herbicide rating, CHEAL [16]	herbicide rating, GALAP [17]	herbicide rating, HELAN [18]	herbicide rating, HORVW [19]	herbicide rating, IPOHE [20]	other results
C[C@H](NC(=O)c1nc(-c2ccc(Cl)cc2)ns1)c1ccccc1 [Example 27, (S)-3-(4-Chlorophenyl)-[1,2,4]thiadiazole-5-carboxylic acid, 1-(phenylethyl) amide]	0	0	0	0	0	0	2 (6-15%)	0	3 (16-29%)	1 (1-5%)	7 (80-90%)	0	6 (65-79%)	4 (30-44%)	5 (45-64%)	4 (30-44%)	5 (45-64%)	8 (91-99%)	2 (6-15%)	7 (80-90%)	herbicide rating, SETVI [21]: 8 (91-99%); herbicide rating, TRZAW [22]: 2 (6-15%); herbicide rating, VERPE [23]: 7 (80-90%); herbicide rating, ZEAMX [24]: 5 (45-64%)
O=C(NCc1cccs1)c1nc(C=Cc2ccccc2)ns1 [Example 28]	0	0	0	0	0	0	0	0	0	0	0	0	1 (1-5%)	1 (1-5%)	0	2 (6-15%)	0	0	0	0	herbicide rating, SETVI [21]: 3 (16-29%); herbicide rating, TRZAW [22]: 0; herbicide rating, VERPE [23]: 2 (6-15%); herbicide rating, ZEAMX [24]: 0
C[C@H](NC(=O)c1nc(C=Cc2ccccc2)ns1)c1ccccc1 [Example 30]	0	0	0	0	2 (6-15%)	0	0	0	0	0	0	0	3 (16-29%)	1 (1-5%)	2 (6-15%)	4 (30-44%)	4 (30-44%)	2 (6-15%)	0	4 (30-44%)	herbicide rating, SETVI [21]: 3 (16-29%); herbicide rating, TRZAW [22]: 2 (6-15%); herbicide rating, VERPE [23]: 0; herbicide rating, ZEAMX [24]: 0
CCCCc1nsc(C(=O)NCc2cccs2)n1 [Example 31]	0	0	0	0	0	0	0	0	0	0	0	0	1 (1-5%)	2 (6-15%)	0	4 (30-44%)	2 (6-15%)	2 (6-15%)	0	3 (16-29%)	herbicide rating, SETVI [21]: 4 (30-44%); herbicide rating, TRZAW [22]: 2 (6-15%); herbicide rating, VERPE [23]: 0; herbicide rating, ZEAMX [24]: 1 (1-5%)
